The text below walks through data of paper PMC12523843, “Kuwanon A Targeted YWHAB in Hepatocellular Carcinoma Cells to Inhibit the Raf/MEK/ERK Signaling Pathway” (Cells, 2025).

Where two headings read alike, the source gives them in different places.

The term IC50 denotes the midpoint of a concentration-inhibition curve. Usually stoichiometry N stands for a count of units in the complex or per binding partner.

Experiment [1] concerns MHCC97 H cells. Kind of experiment: Transwell migration screen of selected compounds. The format is cell-based, human. The conditions noted are these: compounds at an IC50 concentration. As to the method:
(§1) The Transwell assay measured the migration and invasion of cells by calculating the number of cells that passed through the material. Prior to the Transwell migration assay, cells were serum-starved in FBS-free culture medium for 24 h. The cells were then detached using trypsin, washed 1–2 times with PBS, and resuspended in DMEM. Approximately 50,000–100,000 cells were seeded into the upper chamber of the Transwell insert. The lower chamber was filled with 600 μL of complete medium containing the test compound. The Transwell system was incubated for 12 h under standard culture conditions (37 °C, 5% CO2). After incubation, the migrated cells on the lower membrane surface were fixed with 4% paraformaldehyde (PFA) and stained with 0.1% crystal violet. Non-migrated cells remaining in the upper chamber were carefully removed with a cotton swab. Finally, the stained cells were visualized under a microscope. If matrix gel was needed, it should be added according to the instructions (Beyotime, Shanghai, China) before the cells were seeded.

The test system of experiment [2] is MHCC97H and SMMC 7721 cells. The experiment is described as follows: CCK8 cell viability screen of mulberry active substances. The conditions noted are these: 10 μM, 48 h. The format is cell-based, human. How it is done: The CCK8 assay is used to investigate the effect of compounds on cell viability by measuring the amount of formazan dye. Firstly, 8000 cells were inoculated into each well of the 96-well plate with three replicates per condition. At the same time, add the corresponding mulberry active substances. After 48 h of incubation, 20 μL of the Cell Counting Kit-8 (CCK8) reagent (Beyotime, Shanghai, China) was added to each well. After being cultured under 37 °C and 5% carbon dioxide for 2–3 h, the absorbance was measured at 450 nm.

Experiment [3] relates to normal human liver cells (L-O2). The experiment is described as follows: MTT IC50 determination in normal liver cells. The following applies: L-O2, MTT method. The format is cell-based. How it is done:
(§2) Cell viability was assessed using MTT experiments. Cells, together with KA, were seeded into 96-well plates at a density of 2000 cells per well with three replicates per condition. DMSO was used as a control. At designated time points, 20 μL of MTT (Sigma, St. Louis, MO, USA) solution was added to each well and incubated for 3 h. After removing the culture medium, 200 μL of DMSO was added to dissolve the formazan crystals. The absorbance was then measured using a microplate reader at a wavelength of 560 nm.
(Tetrazolium assays rely on reduction of a dye to a coloured formazan, in cell work by metabolically active cells.)

Experiment [4] relates to MHCC97 H cells. Kind of experiment: MTT IC50 determination in MHCC97 H. The conditions noted are these: MTT method, read-out: IC50 in MHCC97 H (screen). The format is cell-based, human. How it is done:
as §2

Experiment [5] concerns HCC cells (MHCC97 H and SMMC 7721). The experiment is described as follows: Transwell migration (without Matrix-Gel) and invasion (with Matrix-Gel) assay. The format is cell-based, human. The following applies: Sorafenib 10 μM alone or 10 μM KA and 10 μM Sorafenib, 48 h. How it is done:
as §1, with “The Transwell system was incubated for 12 h under standard culture conditions (37 °C, 5% CO2).” left out

Experiment [6] deals with MHCC97 H cells. Further details: method as in MCE website (https://www.medchemexpress.cn/). The following applies: ref MCE website (https://www.medchemexpress.cn/); read-out: IC50 of Sorafenib in MHCC97 H; cited from earlier work.
Experiment [7] deals with SMMC 7721 cells. Further details: method as in MCE website (https://www.medchemexpress.cn/). The conditions noted are these: ref MCE website (https://www.medchemexpress.cn/); read-out: IC50 of Sorafenib in SMMC 7721; cited from earlier work.
Experiment [8] has as its target T1, YWHAB (tyrosine 3-monooxygenase/tryptophan 5-monooxygenase activation protein beta), endogenous in HCC cells (human (endogenous in MHCC97 H and SMMC 7721)), P31946.
T1 chain: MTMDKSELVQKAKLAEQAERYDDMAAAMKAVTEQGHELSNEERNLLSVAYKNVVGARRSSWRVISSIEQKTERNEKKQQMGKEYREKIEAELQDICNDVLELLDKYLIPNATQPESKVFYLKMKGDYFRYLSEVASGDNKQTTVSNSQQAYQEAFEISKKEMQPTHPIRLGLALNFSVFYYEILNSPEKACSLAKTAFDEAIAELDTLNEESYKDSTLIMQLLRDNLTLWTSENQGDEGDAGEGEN
The experiment is described as follows: native gel or EMSA; Blue native PAGE of cell lysates (IP cell lysis buffer, Coomassie G-250), then immunoblot; cells treated with KA or DMSO (less dimer with KA). The following applies: remark: other sources report otherwise.

Experiment [9] addresses T2, FLAG-YWHAB, P31946.
T2 chain: T1 chain
The description is as above. The following applies: remark: other sources report otherwise.

Consider `Cc1cc2c3c(c1)-c1c(O)cc(-c4cc5ccc(O)cc5o4)cc1OC3(c1ccc(O)cc1O)Oc1cc(O)ccc1-2` (centres unmarked) [Albanol B, albanol B], for which the “migration of MHCC97 H (Transwell)” value in [1] is given as “significantly inhibited the migration of MHCC97 H”. Further, the “viability of HCC cells (CCK8)” value in experiment [2] is “significantly inhibited the viability of HCC cells”. For the same molecule, the “IC50 in normal liver cells” value in experiment [3] is reported as “relatively low”. Further, the IC50 in experiment [4] was less than 20 µM. As for `CC(C)=CCc1c(-c2ccc(O)cc2O)oc2c([C@H]3C=C(C)C[C@@H](c4ccc(O)cc4O)[C@@H]3C(=O)c3ccc(O)cc3O)c(O)cc(O)c2c1=O` [Kuwanon G, kuwanon G], the IC50 in [4] is less than 20 µM. On to `CC(C)=CCC/C(C)=C/Cc1c(O)ccc(-c2oc3cc(O)cc(O)c3c(=O)c2CC=C(C)C)c1O` [L8-06, 3'-geranyl-3-prenyl-2',4',5,7-tetrahydroxyflavone], for which the IC50 in experiment [4] (Homo sapiens, MHCC97H) was less than 20 µM.

For `CC(C)=CCc1c(-c2ccc(O)cc2O)oc2c3c(cc(O)c2c1=O)OC(C)(C)C=C3` [Morusin], the IC50 in experiment [4] (Homo sapiens, MHCC97H) was less than 20 µM. On the same count and under the same terms, under `CC(C)(O)CCc1c(-c2ccc(O)cc2O)oc2c3c(cc(O)c2c1=O)OC(C)(C)C=C3` [Morusinol] stands less than 20 µM. With `CC(C)=CCc1c(-c2ccc(O)cc2O)oc2c(CC=C(C)C)c(O)cc(O)c2c1=O` [Mulberrin], the IC50 in experiment [4] is less than 20 µM. In the case of `CNC(=O)c1cc(Oc2ccc(NC(=O)Nc3ccc(Cl)c(C(F)(F)F)c3)cc2)ccn1` [Sorafenib], the “HCC cell migration/invasion (Transwell, polycarbonate membrane or Matrigel)” value in experiment [5] is on record as “no significant effect”. Moreover, the IC50 in experiment [6] and in [7] was approximately 10 µM each time. With sanggenol L, the “migration of MHCC97 H (Transwell)” value in [1] is “significantly inhibited the migration of MHCC97 H”. For the same molecule, the “viability of HCC cells (CCK8)” value in experiment [2] is reported as “significantly inhibited the viability of HCC cells”. Besides, the IC50 in experiment [4] is less than 20 µM. Consider sanggenone C, for which the “viability of HCC cells (CCK8)” value in [2] is recorded as “significantly inhibited the viability of HCC cells”. Further, the IC50 in experiment [4] was less than 20 µM.

In the case of sanggenone D, in experiment [4], the IC50 is less than 20 µM.

B1: YWHAB (tyrosine 3-monooxygenase/tryptophan 5-monooxygenase activation protein beta), endogenous in HCC cells, P31946 1-246 (natural protein)
chain: T1 chain
B1 gave a stoichiometry N in [8] of 2.

B2: FLAG-YWHAB, P31946 1-246 (natural protein)
chain: T1 chain
As to B2, the stoichiometry N in [9] worked out at 2.
